The assay deals with P388 leukemia ip, CD2F1 mice, survival T/C. Kind of assay: NCI In Vivo Anticancer Drug Screen. Data for tumor model P388 Leukemia (intraperitoneal) in CD2F1 (CDF1) mice. The conditions noted are these: endpoint: median survival time, higher = longer survival. The essentials:
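Mice carrying the transplanted tumor received test compound or vehicle. Survival was recorded in each group, and the value is the treated-group measurement divided by that of the vehicle-treated control group.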

[1] abbreviates: dose: 50.0 mg/kg/injection, schedule: Q01DX005 (ip), vehicle: saline with Tween-80.
Where [2] appears, read: dose: 100.0 mg/kg/injection, schedule: Q01DX005 (ip), vehicle: saline with Tween-80.
Setting [3] is: dose: 200.0 mg/kg/injection, schedule: Q01DX005 (ip), vehicle: saline with Tween-80.
Where [4] appears, read: dose: 50.0 mg/kg/injection, schedule: Q01DX009 (ip), vehicle: saline with Tween-80.
Setting [5] is: dose: 100.0 mg/kg/injection, schedule: Q01DX009 (ip), vehicle: saline with Tween-80.
The mark [6] stands for this setting: dose: 60.0 mg/kg/injection, schedule: Q01DX005 (ip), vehicle: saline with Tween-80.
The mark [7] stands for this setting: dose: 120.0 mg/kg/injection, schedule: Q01DX005 (ip), vehicle: saline with Tween-80.
Setting [8] is: dose: 240.0 mg/kg/injection, schedule: Q01DX005 (ip), vehicle: saline with Tween-80.
Setting [9] is: dose: 50.0 mg/kg/injection, schedule: Q01DX005 (ip), vehicle: Klucel (hydroxypropylcellulose) (HPC).
The mark [10] stands for this setting: dose: 100.0 mg/kg/injection, schedule: Q01DX005 (ip), vehicle: Klucel (hydroxypropylcellulose) (HPC).
Where [11] appears, read: dose: 200.0 mg/kg/injection, schedule: Q01DX005 (ip), vehicle: Klucel (hydroxypropylcellulose) (HPC).

Results on 20 compounds are retold here after PubChem BioAssay AID330 (DTP/NCI, 2004).

Molecules are shown by their SMILES. Where “and” joins values, the source holds several entries; their conditions need not be identical. Identical values can stand only once. Inconclusive results and toxic doses are left out.

As for `COP(=O)(CCC1OCCO1)OC`, the T/C is, setting by setting: under setting [1], 104 % of control; under setting [2], 104 % of control; under setting [3], 99 % of control.

`O=C1C=CC(O)C2C1CC13SSC4(CC5C(=O)C=CC(O)C5N4C1=O)C(=O)N23` (stereo not drawn): the T/C runs as follows: (dose: 4.0 mg/kg/injection, schedule: Q01DX009 (ip), vehicle: Klucel (hydroxypropylcellulose) (HPC)) 107 % of control; (dose: 8.0 mg/kg/injection, schedule: Q01DX009 (ip), vehicle: Klucel (hydroxypropylcellulose) (HPC)) 102 % of control.

Turning to `COc1cc([N+](=O)[O-])ccc1C`, the T/C (dose: 100.0 mg/kg/injection, schedule: Q04DX003 (ip), vehicle: other) is 104 % of control; the T/C (dose: 200.0 mg/kg/injection, schedule: Q04DX003 (ip), vehicle: other) was 100 % of control; the T/C (dose: 400.0 mg/kg/injection, schedule: Q04DX003 (ip), vehicle: other) is 100 % of control.

Turning to `COc1ccc2cc(Cl)c3ccccc3c2c1`, the T/C reads like this: under setting [1], 87 % of control; under setting [2], 90 % of control; under setting [3], 86 % of control.

`CCOC(=O)NNCC(=O)O`: the T/C was 104 % of control (dose: 12.5 mg/kg/injection, schedule: Q01DX009 (ip), vehicle: water); 105 % of control (dose: 25.0 mg/kg/injection, schedule: Q01DX009 (ip), vehicle: water); 101 % of control (dose: 50.0 mg/kg/injection, schedule: Q01DX009 (ip), vehicle: water); 94 % of control (dose: 100.0 mg/kg/injection, schedule: Q01DX009 (ip), vehicle: water); 98 % of control (dose: 200.0 mg/kg/injection, schedule: Q01DX009 (ip), vehicle: water).

For `Cc1cccc2ncc([N+](=O)[O-])n12`, the T/C is 114 % of control and 88 % of control under setting [4]; 102 % of control and 89 % of control under setting [5].

`C=C(CN(C)C)C(=O)c1ccccc1C`: the T/C runs as follows: (dose: 0.78 mg/kg/injection, schedule: Q01DX005 (ip), vehicle: saline) 102 % of control; (dose: 1.56 mg/kg/injection, schedule: Q01DX005 (ip), vehicle: saline) 98 % of control; (dose: 3.12 mg/kg/injection, schedule: Q01DX005 (ip), vehicle: saline) 94 % of control; (dose: 6.25 mg/kg/injection, schedule: Q01DX005 (ip), vehicle: suspension in saline) 108 % of control.

Consider `O=C(c1ccccc1)N1OCCc2ccccc21`, for which the T/C under setting [6] is 100 % of control, the T/C under setting [7] was 104 % of control and the T/C under setting [8] is 96 % of control.

In the case of `CCC1COC(CC)N1` (stereo not drawn), the T/C by setting is: under setting [1], 113 % of control and 95 % of control; under setting [2], 103 % of control.

As to `COC(=O)C1Cc2c([nH]c3ccccc23)C(C)(C)N1` (stereo not drawn), the T/C is 99 % of control (dose: 25.0 mg/kg/injection, schedule: Q01DX009 (ip), vehicle: suspension in saline); 93 % of control (dose: 50.0 mg/kg/injection, schedule: Q01DX009 (ip), vehicle: suspension in saline); 93 % of control (dose: 100.0 mg/kg/injection, schedule: Q01DX009 (ip), vehicle: suspension in saline).

For the compound `C#CC(O)(c1ccccc1)c1ccc(N2CCOCC2)cc1` (stereo not drawn), the T/C is 95 % of control (dose: 25.0 mg/kg/injection, schedule: Q01DX009 (ip), vehicle: saline with Tween-80); 98 % of control under setting [4]; 98 % of control under setting [5]; 97 % of control (dose: 200.0 mg/kg/injection, schedule: Q01DX009 (ip), vehicle: saline with Tween-80).

As to `NCCNC(c1ccccc1)C(O)c1ccccc1` (stereo not drawn), the T/C is, setting by setting: (dose: 50.0 mg/kg/injection, schedule: Q04DX002 (ip), vehicle: Klucel (hydroxypropylcellulose) (HPC)) 102 % of control; (dose: 100.0 mg/kg/injection, schedule: Q04DX002 (ip), vehicle: Klucel (hydroxypropylcellulose) (HPC)) 100 % of control.

On to `c1ccc(CSCCOCCOCCSCc2ccccn2)nc1`, for which the T/C under setting [9] was 101 % of control, the T/C under setting [10] was 108 % of control and the T/C under setting [11] was 104 % of control.

In the case of `O=C1C2C3C=CC(C2C(=O)N1COP(=O)(OCc1ccccc1)OCc1ccccc1)C1C2C(=O)N(COP(=O)(OCc4ccccc4)OCc4ccccc4)C(=O)C2C31` (stereo not drawn), the T/C (dose: 6.25 mg/kg/injection, schedule: Q01DX009 (ip), vehicle: saline + Tween-80 + alcohol) is 99 % of control; the T/C (dose: 12.5 mg/kg/injection, schedule: Q01DX009 (ip), vehicle: saline + Tween-80 + alcohol) was 105 % of control; the T/C (dose: 25.0 mg/kg/injection, schedule: Q01DX009 (ip), vehicle: saline + Tween-80 + alcohol) was 103 % of control; the T/C (dose: 50.0 mg/kg/injection, schedule: Q01DX009 (ip), vehicle: saline + Tween-80 + alcohol) was 106 % of control; the T/C (dose: 75.0 mg/kg/injection, schedule: Q01DX008 (ip), vehicle: saline + Tween-80 + alcohol) was 109 % of control; the T/C (dose: 100.0 mg/kg/injection, schedule: Q01DX009 (ip), vehicle: saline + Tween-80 + alcohol) is 107 % of control. Further, the T/C is 99 % of control (dose: 150.0 mg/kg/injection, schedule: Q01DX008 (ip), vehicle: saline + Tween-80 + alcohol) and 100 % of control (dose: 300.0 mg/kg/injection, schedule: Q01DX008 (ip), vehicle: saline + Tween-80 + alcohol).

Take `COc1ccc(C2CC(=O)C=C3c4ccc(OC)cc4CCC32)cc1` (stereo not drawn): the T/C by setting is: (dose: 50.0 mg/kg/injection, schedule: Q01DX009 (ip), vehicle: Klucel (hydroxypropylcellulose) (HPC)) 91 % of control; (dose: 100.0 mg/kg/injection, schedule: Q01DX009 (ip), vehicle: Klucel (hydroxypropylcellulose) (HPC)) 91 % of control.

As for `COc1cccc2c1C(=O)c1c(O)c3c(c(O)c1C2=O)C[C@@](O)(/C(CO)=N/NC(=O)c1ccc(Cl)c(Cl)c1)C[C@@H]3OC1CC(N)C(O)C(C)O1` (stereo partly drawn), the T/C by setting is: (dose: 0.12 mg/kg/injection, schedule: Q01DX009 (ip), vehicle: water) 116 % of control; (dose: 1.0 mg/kg/injection, schedule: Q01DX009 (ip), vehicle: water) 153 % of control and 172 % of control; (dose: 1.56 mg/kg/injection, schedule: Q04DX003 (ip), vehicle: water) 108 % of control; (dose: 2.0 mg/kg/injection, schedule: Q01DX009 (ip), vehicle: water) 154 % of control and 176 % of control; (dose: 2.0 mg/kg/injection, schedule: Q04DX003 (ip), vehicle: saline) 99 % of control and 105 % of control and 118 % of control; (dose: 3.13 mg/kg/injection, schedule: Q04DX003 (ip), vehicle: water) 104 % of control and 121 % of control. In addition, the T/C is, setting by setting: (dose: 4.0 mg/kg/injection, schedule: Q01DX009 (ip), vehicle: water) 202 % of control and 205 % of control; (dose: 4.0 mg/kg/injection, schedule: Q04DX003 (ip), vehicle: saline) 108 % of control and 116 % of control; (dose: 6.25 mg/kg/injection, schedule: Q04DX003 (ip), vehicle: water) 155 % of control; (dose: 8.0 mg/kg/injection, schedule: Q01DX009 (ip), vehicle: water) 109 % of control and 241 % of control; (dose: 25.0 mg/kg/injection, schedule: Q04DX003 (ip), vehicle: water) 166 % of control and 167 % of control; (dose: 100.0 mg/kg/injection, schedule: Q04DX003 (ip), vehicle: water) 124 % of control. In addition, the T/C is, setting by setting: (dose: 512.0 mg/kg/injection, schedule: Q04DX003 (ip), vehicle: saline) 99 % of control; (dose: 1024.0 mg/kg/injection, schedule: Q04DX003 (ip), vehicle: saline) 90 % of control.

Regarding `Cc1ccc(C2=C/C(=C/c3ccc(N(CCC#N)CCC#N)cc3)C(=O)O2)cc1C`, the T/C is 94 % of control (dose: 100.0 mg/kg/injection, schedule: Q01DX001 (ip), vehicle: saline with Tween-80); 90 % of control (dose: 200.0 mg/kg/injection, schedule: Q01DX001 (ip), vehicle: saline with Tween-80); 97 % of control (dose: 400.0 mg/kg/injection, schedule: Q01DX001 (ip), vehicle: saline with Tween-80).

In the case of `CC1(C)CC(N=[N+]=[N-])CC(C)(C)N1O`, the T/C (dose: 100.0 mg/kg/injection, schedule: Q04DX003 (ip), vehicle: Klucel (hydroxypropylcellulose) (HPC)) was 100 % of control.

With `O=C1NC(O)(c2ccccc2)c2cnncc21` (stereo not drawn), the T/C by setting is: under setting [6], 90 % of control; under setting [7], 93 % of control; under setting [8], 93 % of control.

For the compound `CC(=O)Nc1ccc2oc3ccc(Cl)cc3c(=O)c2c1`, the T/C is, setting by setting: under setting [9], 98 % of control; under setting [10], 92 % of control; under setting [11], 91 % of control.
